Reference: PubChem BioAssay AID330 (DTP/NCI, 2004)
“And” between values parts separate entries of the source, which are not always exact repeats. Equal entries are not always repeated. Toxic doses and inconclusive results are not listed.

Test system: P388 leukemia ip, CD2F1 mice, survival T/C
Experiment: NCI In Vivo Anticancer Drug Screen. Data for tumor model P388 Leukemia (intraperitoneal) in CD2F1 (CDF1) mice
Details: endpoint: median survival time, higher = longer survival
Method: The antitumor activity of compounds was measured in mice bearing transplantable tumors. Survival or tumor size were measured and the results are expressed as the measurement made in the treated group (T) divided by the measurement made in the vehicle treated control group (C). The tumor model used in this assay is P388 Leukemia (intraperitoneal) in CD2F1 (CDF1) mice

[1] = dose: 12.5 mg/kg/injection, schedule: Q01DX005 (ip), vehicle: saline
[2] = dose: 25.0 mg/kg/injection, schedule: Q01DX005 (ip), vehicle: saline
[3] = dose: 12.5 mg/kg/injection, schedule: Q01DX009 (ip), vehicle: saline
[4] = dose: 25.0 mg/kg/injection, schedule: Q01DX009 (ip), vehicle: saline
[5] = dose: 50.0 mg/kg/injection, schedule: Q01DX009 (ip), vehicle: saline with Tween-80
[6] = dose: 50.0 mg/kg/injection, schedule: Q01DX009 (ip), vehicle: saline
[7] = dose: 50.0 mg/kg/injection, schedule: Q01DX005 (ip), vehicle: Klucel (hydroxypropylcellulose) (HPC)
[8] = dose: 100.0 mg/kg/injection, schedule: Q01DX005 (ip), vehicle: Klucel (hydroxypropylcellulose) (HPC)
[9] = dose: 200.0 mg/kg/injection, schedule: Q01DX005 (ip), vehicle: Klucel (hydroxypropylcellulose) (HPC)
[10] = dose: 50.0 mg/kg/injection, schedule: Q01DX005 (ip), vehicle: saline with Tween-80
[11] = dose: 100.0 mg/kg/injection, schedule: Q01DX005 (ip), vehicle: saline with Tween-80
[12] = dose: 200.0 mg/kg/injection, schedule: Q01DX005 (ip), vehicle: saline with Tween-80
[13] = dose: 100.0 mg/kg/injection, schedule: Q01DX009 (ip), vehicle: saline
[14] = dose: 200.0 mg/kg/injection, schedule: Q01DX009 (ip), vehicle: saline
[15] = dose: 60.0 mg/kg/injection, schedule: Q01DX005 (ip), vehicle: saline with Tween-80
[16] = dose: 120.0 mg/kg/injection, schedule: Q01DX005 (ip), vehicle: saline with Tween-80
[17] = dose: 240.0 mg/kg/injection, schedule: Q01DX005 (ip), vehicle: saline with Tween-80

CN1CCN(c2nc3cccnc3s2)CC1
T/C (dose: 25.0 mg/kg/injection, schedule: Q04DX003 (ip), vehicle: saline with Tween-80): 106 % of control
T/C (dose: 50.0 mg/kg/injection, schedule: Q04DX003 (ip), vehicle: saline with Tween-80): 101 % of control
T/C (dose: 100.0 mg/kg/injection, schedule: Q04DX003 (ip), vehicle: saline with Tween-80): 100 % of control

COc1cc2c(cc1OC)CN(C)C(C)C2 (stereo not given)
T/C [1]: 101 % of control
T/C [2]: 106 % of control
T/C (dose: 50.0 mg/kg/injection, schedule: Q01DX005 (ip), vehicle: saline): 109 % of control and 97 % of control

O=C(O)/C=C\C(=O)O.OO.[O]=[V]
T/C (dose: 3.75 mg/kg/injection, schedule: Q01DX005 (ip), vehicle: saline with Tween-80): 100 % of control
T/C (dose: 15.0 mg/kg/injection, schedule: Q01DX005 (ip), vehicle: saline with Tween-80): 109 % of control

COc1cc2ccnc(C3(OC(=O)c4ccccc4)CCN(CCc4ccccc4)CC3)c2cc1OC
T/C [3]: 96 % of control
T/C [4]: 92 % of control
T/C [5]: 96 % of control

CCOc1nc(C)c(C)c(-c2ccc(OC)c(OC)c2OCc2ccccc2)c1C#N
T/C (dose: 0.05 mg/kg/injection, schedule: Q01DX009 (ip), vehicle: other): 117 % of control
T/C (dose: 0.1 mg/kg/injection, schedule: Q01DX009 (ip), vehicle: other): 96 % of control
T/C (dose: 0.2 mg/kg/injection, schedule: Q01DX009 (ip), vehicle: other): 101 % of control
T/C (dose: 0.4 mg/kg/injection, schedule: Q01DX009 (ip), vehicle: other): 100 % of control and 107 % of control
T/C (dose: 0.8 mg/kg/injection, schedule: Q01DX009 (ip), vehicle: other): 110 % of control
T/C (dose: 1.6 mg/kg/injection, schedule: Q01DX009 (ip), vehicle: other): 117 % of control
T/C (dose: 3.2 mg/kg/injection, schedule: Q01DX009 (ip), vehicle: other): 115 % of control
T/C (dose: 6.4 mg/kg/injection, schedule: Q01DX009 (ip), vehicle: DMSO): 103 % of control
T/C (dose: 6.4 mg/kg/injection, schedule: Q01DX009 (ip), vehicle: other): 110 % of control
T/C (dose: 12.8 mg/kg/injection, schedule: Q01DX009 (ip), vehicle: DMSO): 94 % of control
T/C (dose: 25.6 mg/kg/injection, schedule: Q01DX009 (ip), vehicle: DMSO): 94 % of control
T/C (dose: 51.2 mg/kg/injection, schedule: Q01DX009 (ip), vehicle: DMSO): 97 % of control
T/C (dose: 100.0 mg/kg/injection, schedule: Q01DX009 (ip), vehicle: other): 104 % of control
T/C (dose: 102.0 mg/kg/injection, schedule: Q01DX009 (ip), vehicle: DMSO): 94 % of control
T/C (dose: 200.0 mg/kg/injection, schedule: Q01DX009 (ip), vehicle: other): 115 % of control
T/C (dose: 400.0 mg/kg/injection, schedule: Q01DX009 (ip), vehicle: other): 100 % of control

O=C1NC(c2ccccc2)(c2ccccc2)C(=O)N1CCBr
T/C (dose: 12.5 mg/kg/injection, schedule: Q04DX003 (ip), vehicle: saline): 106 % of control
T/C (dose: 25.0 mg/kg/injection, schedule: Q04DX003 (ip), vehicle: Klucel (hydroxypropylcellulose) (HPC)): 96 % of control
T/C (dose: 25.0 mg/kg/injection, schedule: Q04DX003 (ip), vehicle: saline): 100 % of control
T/C (dose: 50.0 mg/kg/injection, schedule: Q04DX003 (ip), vehicle: Klucel (hydroxypropylcellulose) (HPC)): 105 % of control
T/C (dose: 50.0 mg/kg/injection, schedule: Q04DX003 (ip), vehicle: saline): 105 % of control
T/C (dose: 100.0 mg/kg/injection, schedule: Q04DX003 (ip), vehicle: Klucel (hydroxypropylcellulose) (HPC)): 100 % of control and 107 % of control
T/C (dose: 100.0 mg/kg/injection, schedule: Q04DX003 (ip), vehicle: saline): 104 % of control
T/C (dose: 200.0 mg/kg/injection, schedule: Q04DX003 (ip), vehicle: Klucel (hydroxypropylcellulose) (HPC)): 100 % of control and 96 % of control
T/C (dose: 400.0 mg/kg/injection, schedule: Q04DX003 (ip), vehicle: Klucel (hydroxypropylcellulose) (HPC)): 98 % of control and 99 % of control

N#CC1CCCC(CCc2ccccc2)(c2ccccc2)C1=O (stereo not given)
T/C (dose: 50.0 mg/kg/injection, schedule: Q01DX009 (ip), vehicle: Klucel (hydroxypropylcellulose) (HPC)): 101 % of control
T/C (dose: 100.0 mg/kg/injection, schedule: Q01DX009 (ip), vehicle: Klucel (hydroxypropylcellulose) (HPC)): 104 % of control
T/C (dose: 200.0 mg/kg/injection, schedule: Q01DX009 (ip), vehicle: Klucel (hydroxypropylcellulose) (HPC)): 98 % of control

O=C1OC(c2ccccc2)=N/C1=C\c1ccc(/C=C2/N=C(c3ccccc3)OC2=O)cc1
T/C (dose: 100.0 mg/kg/injection, schedule: Q04DX002 (ip), vehicle: saline with Tween-80): 100 % of control
T/C (dose: 200.0 mg/kg/injection, schedule: Q04DX002 (ip), vehicle: saline with Tween-80): 104 % of control
T/C (dose: 400.0 mg/kg/injection, schedule: Q04DX002 (ip), vehicle: saline with Tween-80): 95 % of control

O=C1CN(c2ccccc2)C(=O)CN1/N=C/c1ccc[nH]1
T/C (dose: 6.25 mg/kg/injection, schedule: Q01DX005 (ip), vehicle: saline with Tween-80): 95 % of control
T/C (dose: 12.5 mg/kg/injection, schedule: Q01DX005 (ip), vehicle: saline with Tween-80): 100 % of control
T/C (dose: 25.0 mg/kg/injection, schedule: Q01DX005 (ip), vehicle: saline with Tween-80): 97 % of control

[Co].[N-]=C=S.[N-]=C=S.[N-]=C=S.[N-]=C=S
T/C (dose: 9.5 mg/kg/injection, schedule: Q01DX009 (ip), vehicle: saline): 101 % of control
T/C (dose: 19.0 mg/kg/injection, schedule: Q01DX009 (ip), vehicle: saline): 93 % of control
T/C (dose: 38.0 mg/kg/injection, schedule: Q01DX009 (ip), vehicle: saline): 104 % of control
T/C [6]: 161 % of control

CCCCNC(=O)C(CONC(=O)OC)NC(C)=O (stereo not given)
T/C [7]: 101 % of control
T/C [8]: 97 % of control
T/C [9]: 101 % of control

COC(=O)Nc1csc(NC(=O)OC)n1
T/C [10]: 96 % of control
T/C [11]: 95 % of control
T/C [12]: 87 % of control

O=C(CNC(=O)c1ccccc1)Nc1ccccc1
T/C [4]: 115 % of control
T/C [6]: 103 % of control
T/C [13]: 94 % of control
T/C [14]: 104 % of control

CC(C)(C)C1CS1 (stereo not given)
T/C [10]: 107 % of control
T/C [11]: 107 % of control
T/C [12]: 117 % of control

NS(=O)(=O)c1ncc(C(=O)N2CCN(Cc3ccccc3)CC2)[nH]1
T/C [15]: 103 % of control
T/C [16]: 107 % of control
T/C [17]: 100 % of control

C=C1N=NN(c2ccc(C)cc2)C1N1CCOCC1 (stereo not given)
T/C (dose: 60.0 mg/kg/injection, schedule: Q01DX005 (ip), vehicle: Klucel (hydroxypropylcellulose) (HPC)): 93 % of control
T/C (dose: 120.0 mg/kg/injection, schedule: Q01DX005 (ip), vehicle: Klucel (hydroxypropylcellulose) (HPC)): 99 % of control
T/C (dose: 240.0 mg/kg/injection, schedule: Q01DX005 (ip), vehicle: Klucel (hydroxypropylcellulose) (HPC)): 90 % of control

Cc1cc(C)c(OC(=O)NCCCl)c(C)c1
T/C [7]: 97 % of control
T/C [8]: 97 % of control
T/C [9]: 96 % of control

O=S(=O)(F)c1ccc(Cl)cc1C[P+](c1ccccc1)(c1ccccc1)c1ccccc1
T/C (dose: 25.0 mg/kg/injection, schedule: Q01DX001 (ip), vehicle: Klucel (hydroxypropylcellulose) (HPC)): 115 % of control and 120 % of control

Oc1ccc2c3c1OC1CCCC4[C@H](C2)N(Cc2ccoc2)CC[C@@]314 (stereo not given in full)
T/C [6]: 91 % of control
T/C [13]: 98 % of control
T/C [14]: 91 % of control

N#CC1=CCc2ccccc2N1C(=O)Oc1ccccc1
T/C [15]: 97 % of control
T/C [16]: 88 % of control
T/C [17]: 88 % of control

O=NNc1ccncc1
T/C (dose: 6.25 mg/kg/injection, schedule: Q01DX005 (ip), vehicle: saline): 109 % of control
T/C [1]: 122 % of control
T/C [2]: 120 % of control

O=[N+]([O-])c1ccc(/C(=C\c2ccc(-c3ccccc3)o2)S(=O)(=O)c2ccccc2)o1
T/C [3]: 89 % of control
T/C [4]: 89 % of control

CCS/C(C#N)=C(/Br)c1ccc(OC)cc1
T/C [5]: 98 % of control
T/C (dose: 100.0 mg/kg/injection, schedule: Q01DX009 (ip), vehicle: saline with Tween-80): 100 % of control
